Counter-ions that a name gives are not always drawn. Like-named read-outs stand apart in the source and are kept apart here.
Assays:
[1] = target: alpha-2 receptor; experiment: alpha-2 receptor radioligand binding, rat cerebral cortices, [3H]-rauwolscine; conditions: for Ki: rat cerebral cortices, [3H]-rauwolscine, read-out: Radioligand binding Ki α2; for Alpha-2 selectivity Ki α1/Ki α2: ratio Ki α1/Ki α2
[2] = tested on: norepinephrine uptake; experiment: inhibition of [3H]-amine uptake by synaptosome preparations, hypothalamus (norepinephrine); assay type: biochemical, rat (male Sprague-Dawley); conditions: hypothalamus synaptosomes, [3H]-amine approx. 100 nM, 4 min, 37° C.; read-out: Biogenic amine uptake IC50 NE
Text: (§1) The primary method of evaluation of biogenic amine uptake activity has been the in vitro determination of the inhibition of radioactive amine uptake by synaptosome preparations of brain tissue. Basic procedures used are those described by Snyder and Coyle (Snyder, S. H. and J. T. Coyle, Regional Differences in ^3 H-Norepinephrine and ^3 H-Dopamine Uptake into Rat Brain Homogenates, Journal of Pharmacology and Experimental Therapeutics 1969, 165: 78-86) and Wong et al. (Wong, D. T., J-S. Horng and R. W. Fuller, Kinetics of Norepinephrine Accumulation into Synaptosomes of Rat Brain-Effects of Amphetamine and Chloroamphetamines, Biochemical Pharmacology 1973, 22:311-322). Briefly, male Sprague-Dawley rats were decapitated and regions of their brains dissected according to the procedures of Glowinski and Iversen (Glowinski, J. and L. L. Iversen, Regional Studies of Catecholamines in the Rat Brain--I: The Disposition of [^3 H]-Norepinephrine, [^3 H]-Dopamine and [^3 H]-DOPA in Various Regions of the Brain, Journal of Neurochemistry 1966, 13: 655-669). Hypothalamus (norepinephrine-), cortex (serotonin) and striatum (dopamine-uptake) were homogenized in 10, 5, and 20 volumes, respectively,of 0.32M sucrose using a Teflon/glass Potter-Elvehjem tissue grinder. Samples were centrifuged at 1000×G for 10 minutes and the supernatants harvested and used in the assay. Aliquots of tissue ([…]) were added to 750 mL of Kreb's solution (composition in mM; sodium chloride 118, potassium chloride 4.0, calcium chloride 1.13, potassium dihydrogen phosphate 1.12, magnesium sulfate 1.20, sodium bicarbonate 2.4, D-glucose 5.0, disodium ethylenediaminetetraacetic acid 1.5, ascorbic acid 1.0, and Pargyline, 12.5 mM, pH=7.4, aerated with 95% oxygen, 5% carbon dioxide), 50 mL of test compound diluted in 0.3 mM ascorbic acid, and […] [^3 H]-amine, final concentration approximately 100 nM. Tissues were incubated for 4 minutes at 37° C., followed by rapid vacuum filtration over Whatman GF/B filters and washed with 50 mM Tris-HCl (pH=7.4). Nonspecific uptake was estimated in duplicate samples incubated at 0 ° C. Data were analyzed as described previously (J. F. DeBemardis, D. J. Kerkman, D. L. Arendsen, S. A. Buckner, J. J. Kyncl, and A. A. Hancock, Conformationally Defined Adrenergic Agents. 5. Resolution, Absolute Configuration, and Pharmacological Characterization of the Enantiomers of 2-[5,6-Dihyroxy-1,2,3,4-tetrahydro-1-1-naphthyl]imidazoline: A Potent Agonist at a-Adrenoceptors, Journal of Medicinal Chemistry 1987, 30: 1011-1017).

[3] = tested on: serotonin (5-HT) uptake; experiment: inhibition of [3H]-amine uptake by synaptosome preparations, cortex (serotonin); assay type: biochemical, rat (male Sprague-Dawley); conditions: cortex synaptosomes, [3H]-amine approx. 100 nM, 4 min, 37° C.; read-out: Biogenic amine uptake IC50 5-HT
Text: as §1

[4] = tested on: dopamine uptake; experiment: inhibition of [3H]-amine uptake by synaptosome preparations, striatum (dopamine); assay type: biochemical, rat (male Sprague-Dawley); conditions: striatum synaptosomes, [3H]-amine approx. 100 nM, 4 min, 37° C.; read-out: Biogenic amine uptake IC50 DA
Text: as §1

[5] = target: T1, alpha-1 receptor (Rattus norvegicus, UniProt P15823); experiment: alpha-1 receptor radioligand binding, rat liver homogenates, [3H]-prazosin
T1 sequence (P15823 1-515): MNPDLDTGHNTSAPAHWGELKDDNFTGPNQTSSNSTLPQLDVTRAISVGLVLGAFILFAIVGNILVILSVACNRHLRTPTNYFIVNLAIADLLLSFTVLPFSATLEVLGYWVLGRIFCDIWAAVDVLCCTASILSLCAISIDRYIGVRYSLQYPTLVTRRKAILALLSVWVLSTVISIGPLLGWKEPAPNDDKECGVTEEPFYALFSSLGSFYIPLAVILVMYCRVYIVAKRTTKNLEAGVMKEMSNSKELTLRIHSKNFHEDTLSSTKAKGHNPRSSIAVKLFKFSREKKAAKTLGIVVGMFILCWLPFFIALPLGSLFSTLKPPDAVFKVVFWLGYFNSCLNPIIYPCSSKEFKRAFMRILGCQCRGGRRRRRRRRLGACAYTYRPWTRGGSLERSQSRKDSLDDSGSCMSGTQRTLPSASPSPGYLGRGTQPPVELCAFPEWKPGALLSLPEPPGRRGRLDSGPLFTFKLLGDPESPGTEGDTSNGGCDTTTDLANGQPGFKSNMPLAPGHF

SMILES	Ki [1] [nM]	Alpha-2 selectivity Ki α1/Ki α2 [1]	IC50 [2] [nM]	IC50 [3] [nM]	IC50 [4] [nM]	Ki [5] [nM]	Ki ([5]; read-out: Radioligand binding Ki α1, rat liver homogenates, [3H]-prazosin) [nM]
COc1ccc2c(c1)CCN(C)C2CN1CCC(c2ccccc2)C1 (stereo not shown) [Example 1, 6-Methoxy-2-methyl-1-(3-phenylpyrrolidino)methyl-1,2,3,4-tetrahydroisoquinoline dihydrochloride]	6.2	19	4430	9180	28300	120	
COc1ccc2c(c1)CCN(C)C2CN(C)CCc1ccccc1 (stereo not shown) [Example 2, 6-Methoxy-2-methyl-1-((N-methyl-N-(2-phenylethyl)amino)methyl)-1,2,3,4-tetrahydroisoquinoline dihydrochloride]	4.6	38	1240	7710	26500	175	
COc1cccc2c1CCN(C)C2CN1CCC(c2ccccc2)C1 (stereo not shown) [Example 3, 5-Methoxy-2-methyl-1-(3-phenylpyrrolidino)methyl-1,2,3,4-tetrahydroisoquinoline dihydrochloride]	6	51	621	4450	9400	306	
CN(CCc1ccccc1)CC1c2ccc3c(c2CCN1C)OCO3 (stereo not shown) [Example 4, 5,6-Methylenedioxy-2-methyl-1-((N-methyl-N-(2-phenylethyl)amino)methyl)-1,2,3,4-tetrahydroisoquinoline dihydrochloride]	2.6	238	885	2600	24700	621	
CN1CCc2c(ccc3c2OCO3)C1CN1CCC(c2ccccc2)C1 (stereo not shown) [Example 5, 5,6-Methylenedioxy-2-methyl-1-N-(3-phenylpyrrolinodino)methyl-1,2,3,4-tetrahydroisoquinoline dihydrochloride]	4.3	42	249	2030	11400	180	
CN1CCc2cc3c(cc2C1CN1CCC(c2ccccc2)C1)OCO3 (stereo not shown) [Example 6, 6,7-Methylenedioxy-2-methyl-1-(3-phenylpyrrolidino)methyl-1,2,3,4-tetrahydroisoquinoline dimethanesulfonate]	11.4	6				72	
CN(CCc1ccccc1)CC1c2cc3c(cc2CCN1C)OCO3 (stereo not shown) [Example 7, 6,7-Methylenedioxy-2-methyl-1-((N-methyl-N-(2-phenylethyl)amino)methyl)-1,2,3,4-tetrahydroisoquinoline dihydrochloride]	6.4	96	589	6270	49800	613	
CN1CCc2c(ccc3c2OCO3)[C@@H]1CN1CC[C@H](c2ccccc2)C1 [Example 8, 5,6-Methylenedioxy-2-methyl-1(R)-(3'(R)-phenylpyrrolidino)methyl-1,2,3,4-tetrahydroisoquinoline dihydrochloride]	2.5	178	489	1110	9300		446
CN1CCc2c(ccc3c2OCO3)[C@@H]1CN1CC[C@@H](c2ccccc2)C1 [Example 9, 5,6-Methylenedioxy-2-methyl-1(R)-[3'(S)-phenylpyrrolidino]methyl-1,2,3,4-tetrahydroisoquinoline dihyrochloride]	2.1	80	426	1580	9540	168	
CN1CCc2c(ccc3c2OCO3)[C@H]1CN1CC[C@H](c2ccccc2)C1 [Example 10, 5,6-Methylenedioxy-2-methyl-1(S)-[3'(R)-phenylpyrrolidino]methyl-1,2,3,4-tetrahydroisoquinoline dihydrochloride]	20.2	18.5	214	754	11700	374	
CN1CCc2c(ccc3c2OCO3)[C@H]1CN1CC[C@@H](c2ccccc2)C1 [Example 11, 5,6-Methylenedioxy-2-methyl-1(S)-[3'(S)-phenylpyrrolidino]methyl-1,2,3,4-tetrahydroisoquinoline dihydrochloride]	32.5	4.8	116	1700	4950	157	
CN(CCc1ccccc1)C[C@H]1c2ccc3c(c2CCN1C)OCO3 [Example 12, 5,6-Methylenedioxy-2-methyl-1(R)-(((N-methyl-N-phenylethyl)amino)methyl)-1,2,3,4-tetrahydroisoquinoline dihydrochloride]	0.98	1040	1290	1410	25500	1020	
CN(CCc1ccccc1)C[C@@H]1c2ccc3c(c2CCN1C)OCO3 [Example 13, 5,6-Methylenedioxy-2-methyl-1(S)-(((N-methyl-N-phenylethyl)amino)methyl-1,2,3,4-tetrahydroisoquinolinedihydrochloride]	7.1	76	210	2890	10600	542	
CNCCC(Oc1ccc(C(F)(F)F)cc1)c1ccccc1 (stereo not shown) [Fluoxetine, reference compound]			1310		15200		
COC(=O)[C@H]1[C@H]2C[C@H]3c4[nH]c5ccccc5c4CCN3C[C@H]2CC[C@@H]1O [Rauw*, Rauwolscine, reference compound]			> 100			450	

Source: patent US5389638A, “Tetrahydroisoquinolines as alpha-2 antagonists and biogenic amine uptake inhibitors” (Abbott Laboratories, priority 1993, dated 1995)
